Earlier results in US20220193028A1, “THERAPEUTIC COMBINATIONS, LIQUID PHARMACEUTICAL COMPOSITIONS, KITS FOR THEIR PREPARATION, AND METHODS OF THEIR USE” (priority 2019, published 2022).

Target: AMPA receptor
Conditions: non-competitive selective allosteric modulator of the AMPA receptor; read-out: IC50 (block of glutamate induced currents)

Q: Which IC50 does the source give for `N#Cc1ccccc1-c1cc(-c2ccccn2)cn(-c2ccccc2)c1=O` [perampanel] here?
A: Its IC50 is ~560 nM.
